Active and inactive are the calls of the source. The rule behind the calls is not given here.
Key:
[1] = test system: Entamoeba histolytica; assay: Induction of apoptosis in Entamoeba histolytica […] trophozoites assessed as viable cells at IC50 concentration after 48 hrs by annexin-V-FITC/propidium iodide staining based flow cytometric analysis (reference value: 98%); assay type: functional, HM-1:IMSS
[2] = test system: Entamoeba histolytica; assay: Antimicrobial activity against Entamoeba histolytica […] trophozoites infected in Syrian hamster assessed as inhibition of amoebic liver abscess by abundant monocytes at 0.1 mg/kg, ip at 4 days post infection and measured on day 8 by H and E staining based microscopic method; assay type: functional, organism-based; conditions: HM-1:IMSS, time 4.0 day
[3] = test system: Entamoeba histolytica; assay: Antimicrobial activity against Entamoeba histolytica […] trophozoites infected in Syrian hamster assessed as ALT level at 0.1 mg/kg, ip at 4 days post infection and measured on day 8 (reference value: 276 +/- 24 U/L); assay type: functional, HM-1:IMSS; conditions: time 4 day
[4] = test system: Entamoeba histolytica; assay: Induction of apoptosis in Entamoeba histolytica […] trophozoites assessed as early apoptotic cells at IC50 concentration after 48 hrs by annexin-V-FITC/propidium iodide staining based flow cytometric analysis (reference value: 0.9%); assay type: functional, HM-1:IMSS
[5] = test system: Entamoeba histolytica; assay: Antimicrobial activity against Entamoeba histolytica […] trophozoites assessed as decrease in size of cells at IC50 concentration after 48 hrs by uranyl acetate staining based TEM analysis; assay type: functional, organism-based; conditions: HM-1:IMSS
[6] = test system: Entamoeba histolytica; assay: Antimicrobial activity against Entamoeba histolytica […] trophozoites infected in Syrian hamster assessed as inhibition of amoebic liver abscess by measuring vascular congestion at 0.1 mg/kg, ip at 4 days post infection and measured on day 8 by H and E staining based microscopic method; assay type: functional, organism-based; conditions: HM-1:IMSS, time 4.0 day
[7] = test system: CHO-K1; assay: Cytotoxicity against CHO-K1 cells assessed as reduction in cell viability after 24 hrs by MTT assay; assay type: cell-based; conditions: Cricetulus griseus, CHO-K1, 24 h
[8] = test system: BEAS-2B; assay: Cytotoxicity against human BEAS-2B cells assessed as reduction in cell viability after 24 hrs by MTT assay; assay type: cell-based
[9] = test system: Entamoeba histolytica; assay: Induction of apoptosis in Entamoeba histolytica […] trophozoites assessed as necrotic cells at IC50 concentration after 48 hrs by annexin-V-FITC/propidium iodide staining based flow cytometric analysis (reference value: 0.4%); assay type: functional, HM-1:IMSS
[10] = test system: Entamoeba histolytica; assay: Antimicrobial activity against Entamoeba histolytica […] trophozoites assessed as abnormal condensation of chromatin at IC50 concentration after 48 hrs by uranyl acetate staining based TEM analysis; assay type: functional, organism-based; conditions: HM-1:IMSS
[11] = test system: Entamoeba histolytica; assay: Antimicrobial activity against Entamoeba histolytica HM1:MMS assessed as reduction in amoeba growth; assay type: functional, organism-based; conditions: HM-1:IMSS
[12] = test system: Entamoeba histolytica; assay: Antimicrobial activity against Entamoeba histolytica […] trophozoites infected in Syrian hamster assessed as triglycerides level at 0.1 mg/kg, ip at 4 days post infection and measured on day 8 (reference value: 395 +/- 41 mg/dl); assay type: functional, HM-1:IMSS; conditions: time 4 day
[13] = test system: Entamoeba histolytica; assay: Antimicrobial activity against Entamoeba histolytica […] trophozoites infected in Syrian hamster assessed as total bilirubin level at 0.1 mg/kg, ip at 4 days post infection and measured on day 8 (reference value: 0.8 +/- 0.2 mg/dl); assay type: functional, HM-1:IMSS; conditions: time 4 day
[14] = test system: Entamoeba histolytica; assay: Antimicrobial activity against Entamoeba histolytica […] trophozoites infected in Syrian hamster assessed as glucose level at 0.1 mg/kg, ip at 4 days post infection and measured on day 8 (reference value: 126 +/- 18 mg/dl); assay type: functional, HM-1:IMSS; conditions: time 4 day
[15] = test system: Entamoeba histolytica; assay: Antimicrobial activity against Entamoeba histolytica […] trophozoites infected in Syrian hamster assessed as ALP level at 0.1 mg/kg, ip at 4 days post infection and measured on day 8 (reference value: 638 +/- 50 U/L); assay type: functional, HM-1:IMSS; conditions: time 4 day
[16] = test system: Entamoeba histolytica; assay: Antimicrobial activity against Entamoeba histolytica […] trophozoites infected in Syrian hamster assessed as platelets at 0.1 mg/kg, ip at 4 days post infection and measured on day 8 (reference value: 439 +/- 108 […]); assay type: functional, HM-1:IMSS; conditions: time 4 day
[17] = test system: Entamoeba histolytica; assay: Induction of apoptosis in Entamoeba histolytica […] trophozoites assessed as late apoptotic cells at IC50 concentration after 48 hrs by annexin-V-FITC/propidium iodide staining based flow cytometric analysis (reference value: 0.7%); assay type: functional, HM-1:IMSS
[18] = test system: Entamoeba histolytica; assay: Antimicrobial activity against Entamoeba histolytica […] trophozoites infected in Syrian hamster assessed as inhibition of amoebic liver abscess at 0.1 mg/kg, ip at 4 days post infection and measured on day 8 by NMR analysis; assay type: functional, organism-based; conditions: HM-1:IMSS, time 4.0 day
[19] = test system: Entamoeba histolytica; assay: Antimicrobial activity against Entamoeba histolytica […] trophozoites infected in Syrian hamster assessed as inhibition of amoebic liver abscess by measuring edema at 0.1 mg/kg, ip at 4 days post infection and measured on day 8 by H and E staining based microscopic method; assay type: functional, organism-based; conditions: HM-1:IMSS, time 4.0 day
[20] = test system: Entamoeba histolytica; assay: Antimicrobial activity against Entamoeba histolytica […] trophozoites infected in Syrian hamster assessed as inhibition of amoebic liver abscess by measuring liver weight at 0.1 mg/kg, ip at 4 days post infection and measured on day 8 relative to control; assay type: functional; conditions: HM-1:IMSS, 96 h, time 4 day
[21] = test system: Entamoeba histolytica; assay: Antimicrobial activity against Entamoeba histolytica […] trophozoites infected in Syrian hamster assessed as blood ureic nitrogen level at 0.1 mg/kg, ip at 4 days post infection and measured on day 8 (reference value: […]); assay type: functional, HM-1:IMSS; conditions: time 4 day
[22] = test system: Entamoeba histolytica; assay: Antimicrobial activity against Entamoeba histolytica […] trophozoites infected in Syrian hamster assessed as urea level at 0.1 mg/kg, ip at 4 days post infection and measured on day 8 (reference value: 14 +/- 1 mg/dl); assay type: functional, HM-1:IMSS; conditions: time 4 day
[23] = test system: Entamoeba histolytica; assay: Antimicrobial activity against Entamoeba histolytica […] trophozoites assessed as decrease in number of vacuoles at IC50 concentration after 48 hrs by uranyl acetate staining based TEM analysis; assay type: functional, organism-based; conditions: HM-1:IMSS
[24] = test system: Entamoeba histolytica; assay: Antimicrobial activity against Entamoeba histolytica […] trophozoites infected in Syrian hamster assessed as creatinine level at 0.1 mg/kg, ip at 4 days post infection and measured on day 8 (reference value: 0.9 +/- 0.06 mg/dl); assay type: functional, HM-1:IMSS; conditions: time 4 day
[25] = test system: Entamoeba histolytica; assay: Induction of DNA fragmentation in Entamoeba histolytica […] trophozoites at IC50 concentration after 1 hr by TUNEL assay relative to control; assay type: functional, HM-1:IMSS
[26] = test system: Entamoeba histolytica; assay: Antimicrobial activity against Entamoeba histolytica […] trophozoites assessed as decrease in granularity at IC50 concentration after 48 hrs by uranyl acetate staining based TEM analysis; assay type: functional, organism-based; conditions: HM-1:IMSS
[27] = test system: Entamoeba histolytica; assay: Binding affinity to Entamoeba histolytica […] trophozoites actin assessed as induction of polarization of polymerized actin at IC50 concentration incubated for 1 hrs by […] staining based confocal microscopic analysis
[28] = test system: Entamoeba histolytica; assay: Induction of ROS generation in Entamoeba histolytica […] trophozoites at IC50 concentration incubated for 1 hr in presence of catalase by DCFDA staining based assay relative to control; assay type: functional, HM-1:IMSS
[29] = test system: Entamoeba histolytica; assay: Induction of ROS generation in Entamoeba histolytica […] trophozoites at IC50 concentration incubated for 1 hr by DCFDA staining based assay; assay type: functional, organism-based; conditions: HM-1:IMSS

C[C@]12C[C@H](c3ccoc3)OC(=O)[C@H]1CC[C@@]13COC(=O)C1=CC=C[C@H]32
Activity [1]: 12.6%
inhibition [2]: Active
Activity [3]: 81 U/L
Activity [4]: 19.5%
Activity [5]: Active
inhibition [6]: Active
IC50 [7]: 880 µM
IC50 [8]: 600 µM
Activity [9]: 9.4%
Activity [10]: Active
IC50 [11]: 27.7 µM
Activity [12]: 127 mg/dL
Activity [13]: 0.4 mg/dL
Activity [14]: 130 mg/dL
Activity [15]: 324 U/L
Activity [16]: 320 thousand/mm3
Activity [17]: 58.6%
inhibition [18]: Active
inhibition [19]: Active
inhibition in vivo at 0.1 mg/kg [20]: 93.3%
Activity [21]: 17 mg/dL
Activity [22]: 45 mg/dL
Activity [23]: Active
Activity [24]: 0.6 mg/dL
Activity [25]: 78%
Activity [26]: Active
Activity [27]: Active
Activity [28]: 52.68%
Activity [29]: Active

Reference: ChEMBL document CHEMBL4673317, “Linearolactone and Kaempferol Disrupt the Actin Cytoskeleton in Entamoeba histolytica: Inhibition of Amoebic Liver Abscess Development” (J Nat Prod, 2020)
